According to patent publication US20110237500A1, “CECROPIN-MAGAININ HYBRID PEPTIDES” (priority 2008, published 2011):

Tests used:
Assay type in all cases: cell-based
[1] = test system: Y. pseudotuberculosis IP32593; parameters: key: —: No effect (i.e. no significant difference between control [culture with no peptide] and culture with peptide); *: ~1 log effect (i.e. culture with peptide that's growth was ~1 log less than control); **: 1-2 log effect; ***: 2-4 log effect; ****: >4 log effect; “”: “Immediate effect” (i.e. loss of growth by at least 1 log compared to control immediately on addition of peptide [T = 0])
F. novicida U112 = test system: F. novicida U112; parameters: key: —: No effect (i.e. no significant difference between control [culture with no peptide] and culture with peptide); *: ~1 log effect (i.e. culture with peptide that's growth was ~1 log less than control); **: 1-2 log effect; ***: 2-4 log effect; ****: >4 log effect; “”: “Immediate effect” (i.e. loss of growth by at least 1 log compared to control immediately on addition of peptide [T = 0])
B. thailandensis E264 = test system: B. thailandensis E264; parameters: key: —: No effect (i.e. no significant difference between control [culture with no peptide] and culture with peptide); *: ~1 log effect (i.e. culture with peptide that's growth was ~1 log less than control); **: 1-2 log effect; ***: 2-4 log effect; ****: >4 log effect; “”: “Immediate effect” (i.e. loss of growth by at least 1 log compared to control immediately on addition of peptide [T = 0])
F. tularensis LVS = test system: F. tularensis LVS; parameters: key: —: No effect (i.e. no significant difference between control [culture with no peptide] and culture with peptide); *: ~1 log effect (i.e. culture with peptide that's growth was ~1 log less than control); **: 1-2 log effect; ***: 2-4 log effect; ****: >4 log effect; “”: “Immediate effect” (i.e. loss of growth by at least 1 log compared to control immediately on addition of peptide [T = 0])
S. aureus ATCC29213 = assay: Viable count (CFU/ml) time-kill assay of peptides with bacteria; conditions: 102 μg/ml peptide, 37° C., growth versus PBS control

GIGKFLHSAKKFGKAFVGEIMNS [Magainin II]
Effect of peptides after 4 hours incubation with bacteria: Y. pseudotuberculosis IP32593 [1]: —
Effect of peptides after 4 hours incubation with bacteria: F. novicida U112 (F. novicida U112): —
Effect of peptides after 4 hours incubation with bacteria: B. thailandensis E264 (B. thailandensis E264): —
Effect of peptides after 4 hours incubation with bacteria: F. tularensis LVS (F. tularensis LVS): —
Effect of peptides after 4 hours incubation with bacteria: S. aureus ATCC29213 (S. aureus ATCC29213): **** (>4 log effect)
